These results are taken from patent US7205298B2, “Substituted triazine kinase inhibitors” (Janssen Pharmaceutica N.V., priority 2002, dated 2007).

One assay has as its target CDK4 (Homo sapiens, UniProt P11802). The assay is described as follows: Kinase selectivity assay CDK4. It is filed as biochemical. Here is the method:
Assays to test compound inhibition of other kinases were preformed using methods that measure the amount of phosphorylation of a biotinylated peptide substrate. Biotinylated peptide substrates were selected from the literature as appropriate for the enzyme being evaluated. The general procedure used to assay for kinase activity is as follows: a kinase reaction mix was prepared in 50 mM Tris-HCl pH=8, 10 mM MgCl2, 0.1 mM Na3VO4, 1 mM DTT, 10 μM ATP, 0.25–1 μM biotinylated peptide substrate, 0.2–0.8 μCuries per well ^33P-γ-ATP (2000–3000 Ci/mmol). Assay conditions vary slightly for each protein kinase, for example, insulin receptor kinase requires 10 mM MnCl2 for activity and Calmodulin-dependent protein kinase requires calmodulin and 2 mM CaCl2. The reaction mixture was dispensed into the wells of a streptavidin coated Flashplate and 1 μL test compound in 100% DMSO was added to a 100 μL reaction volume resulting in a final concentration of 1% DMSO in the reaction. Enzyme was diluted in 50 mM Tris-HCl pH=8.0, 0.1% BSA and added to each well. The reaction was incubated for one hour at 30° C. in the presence of a test compound. […] The plate was read on a scintillation counter to determine ^33P-γ-ATP incorporated into the immobilized peptide substrate. […] A maximum and minimum signal for the assay was determined on each plate. […]

In assay [1] the target is T1, PDGF-R (beta subunit kinase domain) (Homo sapiens, UniProt P09619).
T1 construct: nucleotides 1874–3507 of the human PDGF-R beta subunit kinase domain; polyhistidine (N)
The assay is described as follows: Kinase selectivity assay PDGF-R. It is filed as biochemical. Here is the method: Assays to test compound inhibition of other kinases were preformed using methods that measure the amount of phosphorylation of a biotinylated peptide substrate. Biotinylated peptide substrates were selected from the literature as appropriate for the enzyme being evaluated. […] Assay conditions vary slightly for each protein kinase, for example, insulin receptor kinase requires 10 mM MnCl2 for activity and Calmodulin-dependent protein kinase requires calmodulin and 2 mM CaCl2. The reaction mixture was dispensed into the wells of a streptavidin coated Flashplate and 1 μL test compound in 100% DMSO was added to a 100 μL reaction volume resulting in a final concentration of 1% DMSO in the reaction. Enzyme was diluted in 50 mM Tris-HCl pH=8.0, 0.1% BSA and added to each well. The reaction was incubated for one hour at 30° C. in the presence of a test compound. After one hour the reaction mix was aspirated from the plate and the plate was washed with PBS containing 100 mM EDTA. The plate was read on a scintillation counter to determine ^33P-γ-ATP incorporated into the immobilized peptide substrate. Test compounds were assayed in duplicate at 8 concentrations (100 μM, 10 μM, 1 μM, 100 nM, 10 nM, 1 nM, 100 pM, 10 pM). A maximum and minimum signal for the assay was determined on each plate. […] Known inhibitor compounds appropriate for the kinase being assayed were also included on each plate. […]

T1 sequence (P09619 554-1106 limits assumed): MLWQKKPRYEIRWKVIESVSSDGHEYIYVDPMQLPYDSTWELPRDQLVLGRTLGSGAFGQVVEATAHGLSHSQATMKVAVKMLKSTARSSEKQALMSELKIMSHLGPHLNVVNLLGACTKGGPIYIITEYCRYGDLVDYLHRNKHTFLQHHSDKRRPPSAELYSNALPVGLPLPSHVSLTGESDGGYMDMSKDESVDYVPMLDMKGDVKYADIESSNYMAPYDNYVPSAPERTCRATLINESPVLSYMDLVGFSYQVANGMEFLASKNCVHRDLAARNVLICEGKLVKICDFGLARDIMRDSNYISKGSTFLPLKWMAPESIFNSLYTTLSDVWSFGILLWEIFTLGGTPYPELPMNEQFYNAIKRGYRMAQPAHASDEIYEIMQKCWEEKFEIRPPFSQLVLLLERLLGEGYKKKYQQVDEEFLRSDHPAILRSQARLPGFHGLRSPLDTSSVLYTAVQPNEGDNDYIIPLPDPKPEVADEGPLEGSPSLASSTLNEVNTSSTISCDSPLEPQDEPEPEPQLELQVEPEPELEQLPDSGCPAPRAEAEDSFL
Sequence of CDK4 (P11802 whole entry, species assumed): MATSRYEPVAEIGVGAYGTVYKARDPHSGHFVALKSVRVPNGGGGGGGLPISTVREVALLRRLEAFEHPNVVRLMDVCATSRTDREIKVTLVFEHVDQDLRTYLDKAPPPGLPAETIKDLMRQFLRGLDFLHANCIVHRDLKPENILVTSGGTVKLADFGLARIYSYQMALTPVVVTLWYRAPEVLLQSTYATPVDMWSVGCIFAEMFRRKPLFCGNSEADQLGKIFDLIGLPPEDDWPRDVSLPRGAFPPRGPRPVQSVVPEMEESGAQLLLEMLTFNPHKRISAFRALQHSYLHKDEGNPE
Sequence of CDK4 (P24385 whole entry partner, species assumed): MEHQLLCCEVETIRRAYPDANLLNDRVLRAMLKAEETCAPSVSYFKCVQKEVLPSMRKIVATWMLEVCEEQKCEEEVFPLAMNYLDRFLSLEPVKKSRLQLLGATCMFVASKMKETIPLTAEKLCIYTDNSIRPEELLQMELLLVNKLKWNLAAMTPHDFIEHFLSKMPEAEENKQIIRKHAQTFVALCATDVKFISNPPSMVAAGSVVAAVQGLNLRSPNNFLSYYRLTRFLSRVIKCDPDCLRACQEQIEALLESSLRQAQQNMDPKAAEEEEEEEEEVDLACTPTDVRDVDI

As for `OCCCNc1cncc(-c2ncnc(Nc3cccc(Cl)c3)n2)c1` [Compound 1, 3-((5-(4-((3-chlorophenyl)amino)-1,3,5-triazin-2-yl)-3-pyridinyl)amino)-1-propanol], the IC50 came out at 1350 nM at CDK4 and 1180 nM in assay [1].

Usually IC50 stands for the concentration that inhibits the measured activity by half.
